{"source": "patent US9271936B2", "about": "“Method for forming mesoporous silica nanoparticles, mesoporous silica nanoparticles, and applications thereof” (UNIVERSITY OF MARYLAND, priority 2008, dated 2016)", "key": {"[1]": {"details": "cited from earlier work"}, "[2]": {"experiment": "Loading (uptake) of target material into MSN, UV-Vis spectroscopy", "type": "physicochemical"}, "[3]": {"experiment": "Release of target material from MSN, UV-Vis spectroscopy", "details": "after subsequent pH decrease to approximately pH 5.0"}}, "data": [{"smiles": "COc1cccc2c1C(=O)c1c(O)c3c(c(O)c1C2=O)C[C@@](O)(C(=O)CO)C[C@@H]3O[C@H]1C[C@H](N)[C@H](O)[C@H](C)O1", "note": "[doxorubicin]", "values": [{"measurement": "pKa", "setting": "[1]", "result": "~7"}, {"measurement": "uptake into MSN", "setting": "[2]", "result": "approximately 3 ug/mg MSN"}, {"measurement": "amount released per mg of MSN at equilibrium", "setting": "[3]", "result": "about 7.5 ug per mg of MSN"}]}]}
